Test results as given in patent US20020137929A1, “1 - (3-heterocyclylphenyl) isothiourea, -isourea, -guanidine and -amidine herbicidal agents” (Intellectual Property Department, BASF Aktiengesellschaft, priority 1998, published 2002).

Legend:
SETVI (Foxtail, Green) [1] = assay: Postemergence herbicidal evaluation; type: in vivo, Setaria viridis
Method in brief: (§1)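 Two-week seedlings sprayed postemergence at 40 psi; formulation: 1:1 acetone/water, 0.5% TWEEN 20; application ≈0.0156–0.500 kg/ha. Greenhouse grow-out, then 0–9 visual scoring at 4–5 weeks.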

ORYSAT (Rice, Tebonnet) = assay: Postemergence herbicidal evaluation; type: in vivo, Oryza sativa, (L.) Tebonnet
Method in brief: as §1

ZEAMX (Corn, Field) [2] = assay: Postemergence herbicidal evaluation; type: in vivo, Zea mays
Method in brief: as §1

ECHCG (Barnyardgrass) = assay: Preemergence herbicidal evaluation; type: in vivo, Echinochloa crus-galli; settings: rated 4-5 weeks after treatment
Method in brief: (§2)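 Each species is sown separately in potting soil over roughly an inch of soil before any emergence. The soil surface then receives an aqueous acetone spray delivering about 0.0156 to 0.500 kg/ha of compound. After four to five weeks, injury is scored from 0 to 9 relative to a control.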

SETVI (Foxtail, Green) [3] = assay: Preemergence herbicidal evaluation; type: in vivo, Setaria viridis; settings: rated 4-5 weeks after treatment
Method in brief: as §2

[4] = tested on: TRZAWR (Wheat, Winter, cv Riband); assay: Preemergence herbicidal evaluation; type: in vivo, Triticum aestivum; settings: rated 4-5 weeks after treatment
Method in brief: as §2

ZEAMX (Corn, Field) [5] = assay: Preemergence herbicidal evaluation; type: in vivo, Zea mays; settings: rated 4-5 weeks after treatment
Method in brief: as §2

[6] = tested on: ECHORC (Watergrass (Calif.)); assay: Preemergence weed control under flooded paddy conditions; type: in vivo, Echinochloa oryzoides; settings: rated 3-4 weeks after treatment
Method in brief: (§3)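 Ratings on a 0-9 visual scale cover stand, vigor, malformation, size, chlorosis and overall appearance relative to a control, taken three to four weeks post-treatment. Application was into flood water over freshly sown silt loam at roughly 0.0313 to 0.500 kg/ha.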

CYPIR (Rice Flatsedge) [7] = assay: as above; type: in vivo, Cyperus iria; settings: rated 3-4 weeks after treatment
Method in brief: as §3

CYPSE (Flatsedge) [8] = assay: as above; type: in vivo, Cyperus serotinus; settings: rated 3-4 weeks after treatment
Method in brief: as §3

[9] = tested on: ECHORC (Watergrass (Calif.)); assay: Postemergence weed control under flooded paddy conditions; type: in vivo, Echinochloa oryzoides; settings: postemergence weeds, 3-4 weeks after treatment
Method in brief: (§4)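 Herbicidal effect is judged by eye on a 0–9 scale versus control, 3–4 weeks after dosing. Dosing is into flood water kept 1.5–3 cm over the soil, at about 0.0313–0.500 kg/ha in aqueous/acetone 50/50 v/v, on 3–5 cm weeds and 1.5–2.5-leaf rice seedlings.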

CYPIR (Rice Flatsedge) [10] = assay: as above; type: in vivo, Cyperus iria; settings: postemergence weeds, 3-4 weeks after treatment
Method in brief: as §4

CYPSE (Flatsedge) [11] = assay: as above; type: in vivo, Cyperus serotinus; settings: postemergence weeds, 3-4 weeks after treatment
Method in brief: as §4

[12] = tested on: SAGPY (Arrowhead (Pygmaea)); assay: as above; type: in vivo, Sagittaria pygmaea; settings: postemergence weeds, 3-4 weeks after treatment
Method in brief: as §4

## Cn1c(C(F)(F)F)cc(=O)n(-c2cc(N=C3SCC(=O)N3CC(=O)NS(C)(=O)=O)c(Cl)cc2F)c1=O [Compound 38, 2-{{2-Chloro-5-[3,6-dihydro-3-methyl-2,6-dioxo-4-(trifluoromethyl)-1(2H)-pyrimidinyl]-4-fluoro-phenyl}imino}-N-(methylsulfonyl)-4-oxo-3-thiazolidineacetamide]
SETVI (Foxtail, Green) [1]; Rate 0.0156 kg/ha
  Postemergence herbicidal rating SETVI: 0.0
SETVI (Foxtail, Green) [1]; Rate 0.0313 kg/ha
  Postemergence herbicidal rating SETVI: 3.0
SETVI (Foxtail, Green) [1]; Rate 0.0625 kg/ha
  Postemergence herbicidal rating SETVI: 5.0
SETVI (Foxtail, Green) [1]; Rate 0.1250 kg/ha
  Postemergence herbicidal rating SETVI: 9.0
SETVI (Foxtail, Green) [1]; Rate 0.2500 kg/ha
  Postemergence herbicidal rating SETVI: 9.0
ORYSAT (Rice, Tebonnet); Rate 0.0156 kg/ha
  Postemergence herbicidal rating ORYSAT: 0.5
ORYSAT (Rice, Tebonnet); Rate 0.0313 kg/ha
  Postemergence herbicidal rating ORYSAT: 0.5
ORYSAT (Rice, Tebonnet); Rate 0.0625 kg/ha
  Postemergence herbicidal rating ORYSAT: 2.5
ORYSAT (Rice, Tebonnet); Rate 0.1250 kg/ha
  Postemergence herbicidal rating ORYSAT: 6.0
ORYSAT (Rice, Tebonnet); Rate 0.2500 kg/ha
  Postemergence herbicidal rating ORYSAT: 7.5
ZEAMX (Corn, Field) [2]; Rate 0.0156 kg/ha
  Postemergence herbicidal rating ZEAMX: 7.5
ZEAMX (Corn, Field) [2]; Rate 0.0313 kg/ha
  Postemergence herbicidal rating ZEAMX: 7.5
ZEAMX (Corn, Field) [2]; Rate 0.0625 kg/ha
  Postemergence herbicidal rating ZEAMX: 7.5
ZEAMX (Corn, Field) [2]; Rate 0.1250 kg/ha
  Postemergence herbicidal rating ZEAMX: 7.5
ZEAMX (Corn, Field) [2]; Rate 0.2500 kg/ha
  Postemergence herbicidal rating ZEAMX: 7.5
ECHCG (Barnyardgrass); rate 0.0313 kg/ha
  Preemergence herbicidal rating ECHCG: 0.0
ECHCG (Barnyardgrass); rate 0.0625 kg/ha
  Preemergence herbicidal rating ECHCG: 0.0
ECHCG (Barnyardgrass); rate 0.1250 kg/ha
  Preemergence herbicidal rating ECHCG: 0.0
ECHCG (Barnyardgrass); rate 0.2500 kg/ha
  Preemergence herbicidal rating ECHCG: 1.0
SETVI (Foxtail, Green) [3]; rate 0.0313 kg/ha
  Preemergence herbicidal rating SETVI: 0.0
SETVI (Foxtail, Green) [3]; rate 0.0625 kg/ha
  Preemergence herbicidal rating SETVI: 3.0
SETVI (Foxtail, Green) [3]; rate 0.1250 kg/ha
  Preemergence herbicidal rating SETVI: 7.0
SETVI (Foxtail, Green) [3]; rate 0.2500 kg/ha
  Preemergence herbicidal rating SETVI: 9.0
[4]; rate 0.0313 kg/ha
  Preemergence herbicidal rating TRZAWR: 0.0
[4]; rate 0.0625 kg/ha
  Preemergence herbicidal rating TRZAWR: 0.0
[4]; rate 0.1250 kg/ha
  Preemergence herbicidal rating TRZAWR: 2.0
[4]; rate 0.2500 kg/ha
  Preemergence herbicidal rating TRZAWR: 7.0
ZEAMX (Corn, Field) [5]; rate 0.0313 kg/ha
  Preemergence herbicidal rating ZEAMX: 0.0
ZEAMX (Corn, Field) [5]; rate 0.0625 kg/ha
  Preemergence herbicidal rating ZEAMX: 0.0
ZEAMX (Corn, Field) [5]; rate 0.1250 kg/ha
  Preemergence herbicidal rating ZEAMX: 0.0
ZEAMX (Corn, Field) [5]; rate 0.2500 kg/ha
  Preemergence herbicidal rating ZEAMX: 4.0
[6]; 0.0313 kg/ha
  Herbicidal rating ECHORC: 0.0
[6]; 0.0625 kg/ha
  Herbicidal rating ECHORC: 2.0
[6]; 0.1250 kg/ha
  Herbicidal rating ECHORC: 4.0
[6]; 0.2500 kg/ha
  Herbicidal rating ECHORC: 7.0
CYPIR (Rice Flatsedge) [7]; 0.0313 kg/ha
  Herbicidal rating CYPIR: 3.0
CYPIR (Rice Flatsedge) [7]; 0.0625 kg/ha
  Herbicidal rating CYPIR: 3.0
CYPIR (Rice Flatsedge) [7]; 0.1250 kg/ha
  Herbicidal rating CYPIR: 5.0
CYPIR (Rice Flatsedge) [7]; 0.2500 kg/ha
  Herbicidal rating CYPIR: 5.0
CYPSE (Flatsedge) [8]; 0.0313 kg/ha
  Herbicidal rating CYPSE: 0.0
CYPSE (Flatsedge) [8]; 0.0625 kg/ha
  Herbicidal rating CYPSE: 0.0
CYPSE (Flatsedge) [8]; 0.1250 kg/ha
  Herbicidal rating CYPSE: 0.0
CYPSE (Flatsedge) [8]; 0.2500 kg/ha
  Herbicidal rating CYPSE: 3.0
[9]; rate 0.0313 kg/ha
  Herbicidal rating ECHORC: 0.0
[9]; rate 0.0625 kg/ha
  Herbicidal rating ECHORC: 2.0
[9]; rate 0.1250 kg/ha
  Herbicidal rating ECHORC: 4.0
[9]; rate 0.2500 kg/ha
  Herbicidal rating ECHORC: 7.0
CYPIR (Rice Flatsedge) [10]; rate 0.0313 kg/ha
  Herbicidal rating CYPIR: 3.0
CYPIR (Rice Flatsedge) [10]; rate 0.0625 kg/ha
  Herbicidal rating CYPIR: 3.0
CYPIR (Rice Flatsedge) [10]; rate 0.1250 kg/ha
  Herbicidal rating CYPIR: 5.0
CYPIR (Rice Flatsedge) [10]; rate 0.2500 kg/ha
  Herbicidal rating CYPIR: 5.0
CYPSE (Flatsedge) [11]; rate 0.0313 kg/ha
  Herbicidal rating CYPSE: 0.0
CYPSE (Flatsedge) [11]; rate 0.0625 kg/ha
  Herbicidal rating CYPSE: 0.0
CYPSE (Flatsedge) [11]; rate 0.1250 kg/ha
  Herbicidal rating CYPSE: 0.0
CYPSE (Flatsedge) [11]; rate 0.2500 kg/ha
  Herbicidal rating CYPSE: 3.0
[12]; rate 0.0313 kg/ha
  Herbicidal rating SAGPY: 0.0
[12]; rate 0.0625 kg/ha
  Herbicidal rating SAGPY: 3.0
[12]; rate 0.1250 kg/ha
  Herbicidal rating SAGPY: 4.0
[12]; rate 0.2500 kg/ha
  Herbicidal rating SAGPY: 9.0
